Measured values taken from paper PMC4699860 (Biophysical Journal, 2015).

Molecular target: K-Ras4B1-166-GDP (Homo sapiens, UniProt P01116)
Assay: Microscale thermophoresis
Type: binding
Details: MST; nucleotide state not given; pH 7.0, 0.05% TWEEN-20

Substance: Ac-KEKLNSKPGKKKKKKSKTK-NH2 [kR-4B-28]
- interaction with K-Ras4B1-166 (in words): abolished the interaction
